Assay: Initial screening for poor solubility in aqueous media
Experimental: Many potential candidates were screened during this process. […] This list was then prioritized based on aqueous solubility, safety, and cost. […] This test was done by mixing […] of PBS and adding 10 mg of bulk drug. […] If the drug fully dissolved at this concentration, it was not considered for the testing.

[1] = PBS pH 7.4, 10 mg bulk drug in 0.3-1.0 L, criterion: no more soluble than 20 mg/L

SMILES: CN1C(C(=O)Nc2ccccn2)=C(O)c2ccccc2S1(=O)=O [piroxicam]
- poor solubility screening in aqueous media [1]: passed the initial screening

SMILES: COc1ccc(Cl)cc1C(=O)NCCc1ccc(S(=O)(=O)NC(=O)NC2CCCCC2)cc1 [glyburide, 1-[[p-[2-(5-chloro-o-anisamido)ethyl]phenyl]-sulfonyl]-3-cyclohexylurea]
- poor solubility screening in aqueous media (pH 7.4): passed the initial screening

SMILES: Cc1c(OCC(F)(F)F)ccnc1C[S+]([O-])c1nc2ccccc2[nH]1 (stereo not drawn) [lansoprazole]
- poor solubility screening in aqueous media [1]: passed the initial screening
